# Patent US9049864B2, “Pyridazinone herbicidal compounds” (Syngenta Limited, priority 2012, dated 2015)
# How the values were obtained:
# Assay in all cases: Post-emergence herbicidal glasshouse test, percentage damage to the plant
# Type in all cases: in vivo
# [1] = system: Echinochloa crus-galli (ECHCG)
# Procedure: (§1) Seeds of a variety of test species are sown in standard soil in pots:—Solanum nigrum (SOLNI), Amaranthus retoflexus (AMARE), Setaria faberi (SETFA), Alopecurus myosuroides (ALOMY), Echinochloa crus-galli (ECHCG), Ipomoea hederacea (IPOHE). After 8 days cultivation (post-emergence) under controlled conditions in a glasshouse (at 24/16° C., day/night; 14 hours light; 65% humidity), the plants are sprayed with an aqueous spray solution derived from the formulation of the technical active ingredient in acetone/water (50:50) solution containing 0.5% Tween 20 (polyoxyethelyene sorbitan monolaurate, CAS RN 9005-64-5). Compounds are applied at 1000 g/ha. The test plants are then grown in a glasshouse under controlled conditions in a glasshouse (at 24/16° C., day/night; 14 hours light; 65% humidity) and watered twice daily. After 13 days, the test is evaluated for the percentage damage caused to the plant. The biological activities are shown in the following table on a five point scale (5=80-100%; 4=60-79%; 3=40-59%; 2=20-39%; 1=0-19%). A comparative experiment is conducted to compare the biological efficacy of a compound of the present invention with those of WO 2011/045271. The test is performed as outlined above using the following compounds. Three different application rates are employed (250 g/ha, 500 g/ha and 1000 g/ha).
# Setaria faberi (SETFA) = system: Setaria faberi (SETFA)
# Procedure: as §1
# Solanum nigrum (SOLNI) = system: Solanum nigrum (SOLNI)
# Procedure: as §1
# [2] = system: Alopecurus myosuroides (ALOMY)
# Procedure: as §1
# [3] = system: Ipomoea hederacea (IPOHE)
# Procedure: as §1
# [4] = system: Amaranthus retoflexus (AMARE)
# Procedure: as §1
# [5] = post-emergence, 1000 g/ha, evaluated after 13 days
# [6] = comparative experiment, rate 250 g/ha
# [7] = comparative experiment, rate 500 g/ha
# [8] = comparative experiment, rate 1000 g/ha
structure (smiles),measurement,setting,value
CN1N=CC(=O)C(n2cc(Cl)c3cc(Cl)ccc32)C1=O (stereo not drawn) [Compound 1.016],"POST Application ECHCG, percentage damage (five point scale)",[1]; [5],1 (1=0-19%)
same,"POST Application SETFA, percentage damage (five point scale)",Setaria faberi (SETFA); [5],1 (1=0-19%)
same,"POST Application SOLNI, percentage damage (five point scale)",Solanum nigrum (SOLNI); [5],5 (5=80-100%)
same,"POST Application ALOMY, percentage damage (five point scale)",[2]; [5],1 (1=0-19%)
same,"POST Application IPOHE, percentage damage (five point scale)",[3]; [5],4 (4=60-79%)
same,"POST Application AMARE, percentage damage (five point scale)",[4]; [5],2 (2=20-39%)
C=CCC1=NN(C)C(=O)C(n2c(Cl)c(Cl)c3ccccc32)C1=O (stereo not drawn) [Compound 2.025],"POST Application ECHCG, percentage damage (five point scale)",[1]; [5],2 (2=20-39%)
same,"POST Application SETFA, percentage damage (five point scale)",Setaria faberi (SETFA); [5],2 (2=20-39%)
same,"POST Application SOLNI, percentage damage (five point scale)",Solanum nigrum (SOLNI); [5],5 (5=80-100%)
same,"POST Application ALOMY, percentage damage (five point scale)",[2]; [5],1 (1=0-19%)
same,"POST Application IPOHE, percentage damage (five point scale)",[3]; [5],5 (5=80-100%)
same,"POST Application AMARE, percentage damage (five point scale)",[4]; [5],2 (2=20-39%)
"CC1=NN(C)C(=O)C(n2c(Cl)c(Cl)c3ccccc32)C1=O (stereo not drawn) [Compound 1.003, 4-(2,3-dichloroindol-1-yl)-2,6-dimethyl-pyridazine-3,5-dione]","POST Application ECHCG, percentage damage (five point scale)",[1]; [5],2 (2=20-39%)
same,"POST Application SETFA, percentage damage (five point scale)",Setaria faberi (SETFA); [5],1 (1=0-19%)
same,"POST Application SOLNI, percentage damage (five point scale)",Solanum nigrum (SOLNI); [5],5 (5=80-100%)
same,"POST Application ALOMY, percentage damage (five point scale)",[2]; [5],1 (1=0-19%)
same,"POST Application IPOHE, percentage damage (five point scale)",[3]; [5],5 (5=80-100%)
same,"POST Application AMARE, percentage damage (five point scale)",[4]; [5],5 (5=80-100%)
COC(=O)Oc1c(C)nn(C)c(=O)c1-n1c(Cl)c(Cl)c2ccccc21 [Compound 3.004],"POST Application ECHCG, percentage damage (five point scale)",[1]; [5],4 (4=60-79%)
same,"POST Application SETFA, percentage damage (five point scale)",Setaria faberi (SETFA); [5],2 (2=20-39%)
same,"POST Application SOLNI, percentage damage (five point scale)",Solanum nigrum (SOLNI); [5],5 (5=80-100%)
same,"POST Application ALOMY, percentage damage (five point scale)",[2]; [5],2 (2=20-39%)
same,"POST Application IPOHE, percentage damage (five point scale)",[3]; [5],5 (5=80-100%)
same,"POST Application AMARE, percentage damage (five point scale)",[4]; [5],5 (5=80-100%)
CN1N=C([S+](C)[O-])C(=O)C(n2c(Cl)c(Cl)c3ccccc32)C1=O (stereo not drawn) [Compound 2.005],"POST Application ECHCG, percentage damage (five point scale)",[1]; [5],1 (1=0-19%)
same,"POST Application SETFA, percentage damage (five point scale)",Setaria faberi (SETFA); [5],1 (1=0-19%)
same,"POST Application SOLNI, percentage damage (five point scale)",Solanum nigrum (SOLNI); [5],5 (5=80-100%)
same,"POST Application ALOMY, percentage damage (five point scale)",[2]; [5],1 (1=0-19%)
same,"POST Application IPOHE, percentage damage (five point scale)",[3]; [5],5 (5=80-100%)
same,"POST Application AMARE, percentage damage (five point scale)",[4]; [5],2 (2=20-39%)
"Cc1cc(Cl)nn1C1C(=O)C=NN(C)C1=O (stereo not drawn) [Compound B, reference compound]","POST Application ECHCG, percentage damage (five point scale)",[1]; [6],1 (1=0-19%)
same,"POST Application ECHCG, percentage damage (five point scale)",[1]; [7],1 (1=0-19%)
same,"POST Application ECHCG, percentage damage (five point scale)",[1]; [8],2 (2=20-39%)
same,"POST Application SETFA, percentage damage (five point scale)",Setaria faberi (SETFA); [6],1 (1=0-19%)
same,"POST Application SETFA, percentage damage (five point scale)",Setaria faberi (SETFA); [7],1 (1=0-19%)
same,"POST Application SETFA, percentage damage (five point scale)",Setaria faberi (SETFA); [8],1 (1=0-19%)
same,"POST Application SOLNI, percentage damage (five point scale)",Solanum nigrum (SOLNI); [6],2 (2=20-39%)
same,"POST Application SOLNI, percentage damage (five point scale)",Solanum nigrum (SOLNI); [7],3 (3=40-59%)
same,"POST Application SOLNI, percentage damage (five point scale)",Solanum nigrum (SOLNI); [8],4 (4=60-79%)
same,"POST Application ALOMY, percentage damage (five point scale)",[2]; [6],1 (1=0-19%)
same,"POST Application ALOMY, percentage damage (five point scale)",[2]; [7],1 (1=0-19%)
same,"POST Application ALOMY, percentage damage (five point scale)",[2]; [8],2 (2=20-39%)
same,"POST Application IPOHE, percentage damage (five point scale)",[3]; [6],1 (1=0-19%)
same,"POST Application IPOHE, percentage damage (five point scale)",[3]; [7],2 (2=20-39%)
same,"POST Application IPOHE, percentage damage (five point scale)",[3]; [8],5 (5=80-100%)
same,"POST Application AMARE, percentage damage (five point scale)",[4]; [6],2 (2=20-39%)
same,"POST Application AMARE, percentage damage (five point scale)",[4]; [7],3 (3=40-59%)
same,"POST Application AMARE, percentage damage (five point scale)",[4]; [8],4 (4=60-79%)
COC1=NN(C)C(=O)C(n2c(Cl)c(Cl)c3ccccc32)C1=O (stereo not drawn) [Compound 2.022],"POST Application ECHCG, percentage damage (five point scale)",[1]; [5],1 (1=0-19%)
same,"POST Application SETFA, percentage damage (five point scale)",Setaria faberi (SETFA); [5],1 (1=0-19%)
same,"POST Application SOLNI, percentage damage (five point scale)",Solanum nigrum (SOLNI); [5],5 (5=80-100%)
same,"POST Application ALOMY, percentage damage (five point scale)",[2]; [5],1 (1=0-19%)
same,"POST Application IPOHE, percentage damage (five point scale)",[3]; [5],5 (5=80-100%)
same,"POST Application AMARE, percentage damage (five point scale)",[4]; [5],4 (4=60-79%)
CCSC1=NN(C)C(=O)C(n2c(Cl)c(Cl)c3ccccc32)C1=O (stereo not drawn) [Compound 2.017],"POST Application ECHCG, percentage damage (five point scale)",[1]; [5],2 (2=20-39%)
same,"POST Application SETFA, percentage damage (five point scale)",Setaria faberi (SETFA); [5],1 (1=0-19%)
same,"POST Application SOLNI, percentage damage (five point scale)",Solanum nigrum (SOLNI); [5],3 (3=40-59%)
same,"POST Application ALOMY, percentage damage (five point scale)",[2]; [5],1 (1=0-19%)
same,"POST Application IPOHE, percentage damage (five point scale)",[3]; [5],1 (1=0-19%)
same,"POST Application AMARE, percentage damage (five point scale)",[4]; [5],4 (4=60-79%)
